Results: PMC2637266, “Quantification of gamma-secretase modulation differentiates inhibitor compound selectivity between two substrates Notch and amyloid precursor protein” (Molecular Brain, 2008)
Entries after “also recorded” stand apart in the source; their conditions may differ. Like-named read-outs stand apart in the source and are kept apart here.

How the values were obtained:
[1] = target: T1, γ-secretase cleavage of APP C100-Flag (Homo sapiens, UniProt P49768); test: In vitro γ-secretase activity assay, Aβ generated from C100-Flag, ELISA; type: biochemical; conditions: for γ-secretase cleavage of APP in vitro at low concentrations: 0.1 nM to 10 nM; for IC50: C100-Flag, 37°C, 4 hr; for Aβ production in vitro, dose response: C100Flag, increasing concentrations
T1 construct: substrate made in E. coli
Protocol: (§1) To characterize the direct effect of two γ-secretase inhibitors cpd E and DAPT on APP/Notch cleavage, a conventional in vitro γ-secretase assay to quantify their inhibitory potency was used. The incubation of γ-secretase complex with purified substrates at 37°C for 4 hr was followed by Western Blot (WB) to determine the quantity of newly generated NICD. A newly generated band that corresponds to the predicted size of the NICD-Flag was detected (Fig. 1A and 1B).
(§2) Figure 1 Generation of NICD and Aβ from purified APP and Notch substrate C100 and N100 in an in vitro γ-secretase activity assay. The E. coli generated APP- and Notch-based, 100-residue γ-secretase substrates C100-Flag and N100-Flag were mixed with the membrane vesicles solubilized in CHAPSO after DMSO or compounds were added. The mixture was incubated at 37°C for 4 hours. A. A dose-dependent inhibition of NICD generation by DAPT. Generation of NICD was detected by Western blot (WB) with antibody 1744 specifically recognizing N-terminus of NICD. B. Generation of NICD was inhibited in the presence of 100 nM of cpd E. C. Levels of NICD determined by WB were quantified by densitometry (dotted line). Levels of Aβ generated from the γ-secretase cleavage of C100 in the presence of DAPT were determined by ELISA (solid line). […] D. NICD (dotted line) and Aβ (solid line) generation in the presence of cpd E were compared.
The same preparation of γ-secretase complex was mixed with C100Flag followed by ELISA to quantify the levels of newly generated Aβ.
(§3) The E. coli generated APP- and Notch-based, 100-residue γ-secretase substrates C100-Flag and N100-Flag were purified as previously described. C100-Flag substrate contains an initiating methionine, the 99 C-terminal residues of APP that start at the […], and a Flag tag. N100-Flag substrate contains a similar initiating methionine, 99 amino acids that start at the TACE cleavage site, and a Flag tag. The membrane vesicles were solubilized in 1% CHAPSO-HEPES and diluted in a final concentration of 0.2% CHAPSO-HEPES. Phosphatidylethanolamine (PE) and phosphatidylcholine (PC) were added to the final concentration of 0.02% PE and 0.08% PC. After adding DMSO or test compounds to the solubilized γ-secretase complex, substrate C100-Flag or N100-Flag was added to the mixture, then followed by incubation at 37°C for 4 hours. Two compounds have been used in this study, compound E (cpd E), {(S,S)-2-[2-(3,5-Difluorophenyl)-acetylamino]-N-(1-methyl-2-oxo-5-phenyl-2,3-dihydro-1H-benzo [e] [1,4] diazepin-3-yl)-propionamide} [57] and DAPT {N-[N-(3,5-Difluorophenacetyl-L-alanyl)]-S-phenylglycine t-Butyl Ester} [79]. Cpd E was provided by Dr. Michael Wolfe.
Sandwich ELISAs for Aβ were performed as described. The capture antibodies, 2G3 (to Aβ residues 33–40) and 4G8 (to Aβ residues 17–24), were used for Aβ40 and Aβ total species, respectively. The detecting antibodies were biotinylated 82E1 (to Aβ residues 1–16) for Aβ1–40/total or biotinylated 266 for Aβx-40 species. The use of mid-region and C-terminal capturing antibodies and N-terminal detecting antibody for chimeric "Notch-Aβ-like" peptide (Nβ*) has been documented. The combination of several capture/detecting antibodies are use to measure Aβ and Nβ* derived from different precursors. The capture antibody 2G3 and detecting antibody 82E1 were used for measuring Nβ* from APP-α-Notch expressing cells. Since the APP-α-NOTCH is the fusion protein with its juxtamembrane portion of the APP ectodomain (the α-secretase cleavage region) replaced by the corresponding sequence in Notch, the epitopes in APP sequence could still be recognized by 2G3 (C-terminus) and 82E1 (N-terminus). The capture antibody 4G8 and detecting antibody 82E1 were used for measuring Nβ* from APP-m-Notch expressing cells. […]

[2] = target: T2, γ-secretase cleavage of Notch N100-Flag (Homo sapiens, UniProt P49768); test: In vitro γ-secretase activity assay, NICD generated from N100-Flag, Western blot densitometry; type: biochemical; conditions: for NICD generation in vitro, dose response: N100-Flag, increasing concentrations
T2 construct: substrate made in E. coli
Protocol: as §1, §2, §3

SMILES	γ-secretase cleavage of APP in vitro at low concentrations [1]	Aβ production in vitro ([1]; 10 and 100 μM)	IC50 ([1]; read-out: concentration inhibiting levels of Aβ to 50% in vitro)	Aβ production in vitro, dose response [1]	γ-secretase cleavage of Notch in vitro at low concentrations ([2]; 0.1 nM to 10 nM)	Notch cleavage reduced to, in vitro γ-secretase activity assay ([2]; 1 μM or higher)	NICD generation blocked in vitro ([2]; 10 and 100 μM)	NICD generation in vitro, dose response [2]	Aβ generation from APP C100 in vitro ([1]; 100 nM (0.1 μM))	IC50 ([1]; read-out: IC50 for Aβ generation (levels of Aβ reduced to 50%) in vitro)	NICD generation in vitro ([2]; 100 nM (0.1 μM), compared to DMSO controls)
C[C@H](NC(=O)Cc1cc(F)cc(F)c1)C(=O)N[C@H](C(=O)OC(C)(C)C)c1ccccc1 [DAPT, N-[N-(3,5-Difluorophenacetyl-L-alanyl)]-S-phenylglycine t-Butyl Ester]	did not inhibit	complete depletion of Aβ production	1000 nM	dose-dependent reduction of Aβ production	did not inhibit	about 50%	~ 60%	clear reduction of NICD generation	–	–	–
C[C@H](NC(=O)Cc1cc(F)cc(F)c1)C(=O)N[C@H]1N=C(c2ccccc2)c2ccccc2N(C)C1=O [cpd E, (S,S)-2-[2-(3,5-Difluorophenyl)-acetylamino]-N-(1-methyl-2-oxo-5-phenyl-2,3-dihydro-1H-benzo [e] [1,4]diazepin-3-yl)-propionamide]	selectively inhibited the γ-secretase cleavage of APP	–	–	dose-dependent reduction of Aβ production	–	–	–	clear reduction of NICD generation	could almost deplete any Aβ generation; also recorded: completely blocked Aβ generation	1 nM	inhibited; also recorded: only minor reduction of NICD levels; also recorded: only had minor effect on Notch cleavage and NICD generation
